Results: patent US20260325654A1, “METHODS AND COMPOSITIONS FOR TARGETED PROTEIN DEGRADATION” (Ranok Therapeutics (Hangzhou) Co. Ltd., priority 2023, published 2026)

How the values were obtained:
ASPC-1 = experiment: CellTiter-Glo Reagent cancer cell line proliferation assay, ASPC-1; assay type: cell-based; conditions: Homo sapiens, ASPC1; ASPC-1, KRAS(G12D) homozygous, 24 hr
Source text: (§1) The following cancer cell lines were employed: • AsPC-1 human pancreatic adenocarcinoma, homozygous KRAS(G12D), (ATCC, #CRL-1682); A-427 human lung carcinoma, heterozygous KRAS(G12D), (ATCC, #HTB-53); AGS human gastric adenocarcinoma, heterozygous KRAS(G12D), (ATCC, #CRL-1739); GP2D human colon adenocarcinoma, heterozygous KRAS(G12D), (Sigma Aldrich, 95090714); SW1990 human pancreatic adenocarcinoma, homozygous KRAS(G12D), (ATCC, #CRL2172); LU65A human lung giant cell carcinoma, heterozygous KRAS(G12C), (JCRB Cell Bank, #JCRB0054); NCIH727 human lung carcinoid, heterozygous KRAS(G12V), (ATCC, #CRL-5815); MKN1 human gastric adenosquamous carcinoma KRAS (wt), (JCRB Cell Bank, #JCRB0252). Cell lines were cultured according to ATCC, JCRB and Sigma Aldrich recommendations.
(§2) Cells were plated in 96-well tissue culture plates at 4,000 cells/well and incubated at 37° C./5% CO2 for 24 hr in 100 μl of media. 3-fold serial dilutions of each test compound were prepared ranging from 20 μM to 1.02 nM. Cells were then treated with test compounds at various concentrations with a final concentration of 0.5% DMSO/well, and then incubated at 37° C./5% CO2 for 24 hr. 100 μl of CellTiter-Glo® Reagent (Promega Corporation, Madison, WI) was added to each well and processed according manufacturer's protocol. Results were analyzed and IC50-values were calculated in GraphPad 7 software.

A427 = experiment: CellTiter-Glo Reagent cancer cell line proliferation assay, A427; assay type: cell-based; conditions: Homo sapiens, A-427; A427, KRAS(G12D) heterozygous, 24 hr
Source text: as §1, §2

AGS = experiment: CellTiter-Glo Reagent cancer cell line proliferation assay, AGS; assay type: cell-based, human; conditions: Homo sapiens, 24 h, KRAS(G12D) heterozygous
Summary of the method: (§3)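 Cells were seeded at 4,000 per well, grown 24 hr at 37° C./5% CO2, then exposed 24 hr to 3-fold dilutions from 20 μM to 1.02 nM (0.5% DMSO final). Viability was read with CellTiter-Glo luminescence, and IC50 values were calculated.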

KRAS(G12D)/SOS1 = biological target: T1, KRAS(G12D)/SOS1 (Homo sapiens, UniProt P01116, G12D); experiment: KRAS(G12D)/SOS1 Homogeneous Time-Resolved Fluorescence (HTRF) Assay; assay type: binding; conditions: absence of GTP, 4° C., 3 hr
T1 construct: purchased Cisbio 63ADK000CB16PEG
Protocol: 3-fold serial dilutions of each test compound were prepared ranging from 20 μM to 1.02 nM. The test compound was mixed and incubated with reaction components, incubated in a sealed plate at 4° C. for 3 hr and fluorescence was measured using a PerkinElmer Envision plate reader. The % inhibition and IC50 values (the concentration at which 50% of the maximal inhibition occurs) were calculated and plotted using GraphPad Prism 7 software.

SW1990 = experiment: CellTiter-Glo Reagent cancer cell line proliferation assay, SW1990; assay type: cell-based; conditions: Homo sapiens; SW1990, KRAS(G12D) homozygous, 24 hr
Source text: as §1, §2

KRAS(G12D) = KRAS(G12D) (Homo sapiens, UniProt P01116, G12D); experiment: cell-based; assay type: cell-based; parameters: Cell lines SW1990 and GP2D that express KRAS(G12D); host or cells: SW1990; conditions: for Dmax: SW1990, read-out: WB data SW1990 DMax; for DC50: read-out: WB data SW1990 DC50, SW1990, KRAS degradation, 24 hr
Protocol: Cell lines were cultured according to ATCC, JCRB and Sigma Aldrich recommendations.
Cells were then washed with cold PBS, aspirated and cold RIPA buffer containing a protease/phosphatase inhibitor cocktail was added to lyse cells. After centrifugation, the total protein concentrations of cell lysates were determined using the BCA protein assay. Samples were normalized for equivalent protein concentrations, 5× SDS-PAGE loading buffer added and denatured at 100° C. for 10 min. 20 μl of each sample/well was loaded on a SDS-PAGE gel and electrophoresed for 20 min at 80 V, then 120 V for 1.5 hr. Gels were then electroblotted to nitrocellulose membranes using a wet-transfer method at 250 mA for 2.5 hr. Membranes were incubated with blocking buffer for 1 hr and washed 3 times with TBST for 5 min. Membranes were then incubated with anti-KRAS (Sigma-Aldrich, #SAB1404011) and anti-β-Actin monoclonal antibodies (Cell Signaling Technology, #3700) diluted in blocking buffer at 4° C. overnight per the manufacturer's recommendations. After washing 3 times, blots were incubated with appropriately labeled secondary antibodies for 1 hr at room temperature and washed again. Fluorescence imaging and quantitation was performed using a LI-COR Odyssey. Results was analyzed using GraphPad Prism 7 software. Compound concentrations that induced KRAS degradation (DC50 and DCmax) were calculated using GraphPad Prism 7 software.

GP2D = experiment: CellTiter-Glo Reagent cancer cell line proliferation assay, GP2D; assay type: cell-based; conditions: Homo sapiens, KRAS(G12D) heterozygous, 24 hr
Summary of the method: as §3

Chain of KRAS(G12D) (P01116 1-188 isoform P01116-2 G12D): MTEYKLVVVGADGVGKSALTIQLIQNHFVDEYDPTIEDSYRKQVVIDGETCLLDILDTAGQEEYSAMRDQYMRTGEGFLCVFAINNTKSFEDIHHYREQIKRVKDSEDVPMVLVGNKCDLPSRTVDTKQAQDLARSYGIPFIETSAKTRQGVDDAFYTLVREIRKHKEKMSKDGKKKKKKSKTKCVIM
T1 sequence (P01116 1-188 isoform P01116-2 G12D): as above

SMILES | IC50 (ASPC-1) | IC50 (A427) | IC50 (AGS) | IC50 (KRAS(G12D)/SOS1) | IC50 (SW1990) | Dmax (KRAS(G12D)) | DC50 (KRAS(G12D)) | IC50 (GP2D)
O=C1CCC(N2C(=O)c3ccc(CN4CCN([C@H]5CN6CCCC6(COc6nc(N7CC8CCC(C7)N8)c7cnc(-c8cc(O)cc9ccccc89)c(F)c7n6)C5)CC4)cc3C2=O)C(=O)N1 (stereo partly shown) [Compound 20] | > 1000 nM | > 1000 nM | > 1000 nM |  |  |  |  | 
CN1C[C@H](N2CCC(C(=O)NCCOc3ccc4c(c3)C(=O)N(C3CCC(=O)NC3=O)C4=O)CC2)C[C@@H]1COc1nc(N2CC3CCC(C2)N3)c2cnc(-c3cc(O)cc4ccccc34)c(F)c2n1 (stereo partly shown) [Compound 23] |  | > 1000 nM | > 1000 nM | < 100 nM |  |  |  | 
C#Cc1cccc2cccc(-c3ncc4c(N5CC6CCC(C5)N6)nc(OC[C@H]5CC[C@@H](CN6CCN(CC7CCN(c8cc9c(cc8F)C(=O)C(N8CCC(=O)NC8=O)C9=O)CC7)CC6)N5C)nc4c3F)c12 (stereo partly shown) [Compound 25] |  | > 1000 nM | > 1000 nM | < 100 nM |  |  |  | 
COc1nc(-c2cc(O)cc3ccccc23)c(F)c2nc(OCC3(CN4CCN(CC5CCN(c6ccc7c(c6)C(=O)N(C6CCC(=O)NC6=O)C7=O)CC5)CC4)CC3)nc(C3CC4CCC(C3)N4)c12 (stereo not shown) [Compound 36] | 100 to 1000 nM | 100 to 1000 nM | 100 to 1000 nM | < 100 nM | 100 to 1000 nM |  |  | 
C#Cc1cccc2cc(O)cc(-c3ncc4c(N5CC6CCC(C5)N6)nc(OCC5(CN6CCN(CC7CCN(c8ccc9c(c8)C(=O)N(C8CCC(=O)N(C)C8=O)C9=O)CC7)CC6)CC5)nc4c3F)c12 (stereo not shown) [Compound 42] |  | 100 to 1000 nM | < 100 nM | < 100 nM | 100 to 1000 nM | 10 to 50% | > 1000 nM | 
C#Cc1c(F)ccc2cc(O)cc(-c3ncc4c(N5CC6CCC(C5)N6)nc(OCC5(CN6CCN(CC7CCN(c8ccc9c(c8)CN(C8CCC(=O)NC8=O)C9=O)CC7)CC6)CC5)nc4c3F)c12 (stereo not shown) [Compound 43] | < 100 nM | < 100 nM | < 100 nM | < 100 nM | < 100 nM | > 50% | < 100 nM | < 100 nM
C#Cc1cccc2cccc(-c3ncc4c(N5CC6CCC(C5)N6)nc(OC[C@H]5C[C@@H](N6CCN(CC7CCC(Nc8ccc9c(c8)C(=O)N(C8CCC(=O)NC8=O)C9=O)CC7)CC6)CN5C)nc4c3F)c12 (stereo partly shown) [Compound 47] | > 1000 nM | > 1000 nM | > 1000 nM |  | > 1000 nM |  |  | 
C#Cc1cccc2cc(O)cc(-c3ncc4c(N5CC6CCC(C5)N6C(=O)C(F)(F)F)nc(OCC5(CN6CCN(CC7CCN(c8ccc9c(c8)CN(C8CCC(=O)NC8=O)C9=O)CC7)CC6)CC5)nc4c3F)c12 (stereo not shown) [Compound 57] | 100 to 1000 nM | 100 to 1000 nM | < 100 nM |  | 100 to 1000 nM | 10 to 50% | > 1000 nM | 
C#Cc1cccc2cc(O)cc(-c3ncc4c(N5CC6CCC(C5)N6)nc(OCC5(CN6CCN(C(=O)C7CCN(c8ccc9c(c8)CN(C8CCC(=O)NC8=O)C9=O)CC7)CC6)CC5)nc4c3F)c12 (stereo not shown) [Compound 58] | 100 to 1000 nM | > 1000 nM | < 100 nM |  | 100 to 1000 nM |  |  | 
C#Cc1c(F)ccc2cc(O)cc(-c3nc(OC)c4c(N5CC6CCC(C5)N6C(=O)C(F)(F)F)nc(OCC5(CN6CCC(CN7CCN(c8ccc9c(c8)CN(C8CCC(=O)NC8=O)C9=O)CC7)CC6)CC5)nc4c3F)c12 (stereo not shown) [Compound 63] | 100 to 1000 nM | > 1000 nM | < 100 nM | < 100 nM | 100 to 1000 nM | 10 to 50% | 100 to 1000 nM | < 100 nM
C#Cc1cccc2cc(O)cc(-c3ncc4c(N5CC6CCC(C5)N6)nc(OCC5(CN6CCN(CC7CCN(c8ccc9c(c8)n(C)c(=O)n9C8CCC(=O)NC8=O)CC7)CC6)CC5)nc4c3F)c12 (stereo not shown) [Compound 64] | < 100 nM | 100 to 1000 nM | < 100 nM | < 100 nM | < 100 nM | > 50% | < 100 nM | < 100 nM
